From patent US8987256B2, “Oxo-heterocyclic substituted carboxylic acid derivatives and the use thereof” (Bayer Intellectual Property GmbH, priority 2008, dated 2015) come the findings set out here.

Assay [1] has as its target T1, recombinant guanylate cyclase reporter cell line (Rattus norvegicus, UniProt P20595).
T1 construct: expressed in transfected cells; host or cells: CHO reporter cell line
T1 sequence (P20595 1-619): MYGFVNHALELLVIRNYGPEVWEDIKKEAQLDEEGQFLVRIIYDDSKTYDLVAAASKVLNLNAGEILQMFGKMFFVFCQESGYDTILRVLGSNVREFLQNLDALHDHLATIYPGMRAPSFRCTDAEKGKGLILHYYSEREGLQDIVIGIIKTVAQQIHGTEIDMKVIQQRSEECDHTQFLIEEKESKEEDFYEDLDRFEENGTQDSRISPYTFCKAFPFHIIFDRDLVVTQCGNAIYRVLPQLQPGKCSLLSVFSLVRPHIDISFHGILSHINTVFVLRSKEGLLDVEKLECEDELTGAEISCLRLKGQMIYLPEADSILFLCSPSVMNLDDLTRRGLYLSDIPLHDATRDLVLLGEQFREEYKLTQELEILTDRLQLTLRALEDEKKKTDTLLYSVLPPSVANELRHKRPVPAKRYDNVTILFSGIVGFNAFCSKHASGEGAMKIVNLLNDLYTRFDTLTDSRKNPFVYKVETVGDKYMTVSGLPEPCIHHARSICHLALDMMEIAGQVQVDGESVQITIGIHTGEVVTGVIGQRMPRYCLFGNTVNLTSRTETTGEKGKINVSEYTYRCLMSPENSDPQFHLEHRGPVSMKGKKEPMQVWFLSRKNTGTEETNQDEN
T1 sequence (P19686 1-690 partner): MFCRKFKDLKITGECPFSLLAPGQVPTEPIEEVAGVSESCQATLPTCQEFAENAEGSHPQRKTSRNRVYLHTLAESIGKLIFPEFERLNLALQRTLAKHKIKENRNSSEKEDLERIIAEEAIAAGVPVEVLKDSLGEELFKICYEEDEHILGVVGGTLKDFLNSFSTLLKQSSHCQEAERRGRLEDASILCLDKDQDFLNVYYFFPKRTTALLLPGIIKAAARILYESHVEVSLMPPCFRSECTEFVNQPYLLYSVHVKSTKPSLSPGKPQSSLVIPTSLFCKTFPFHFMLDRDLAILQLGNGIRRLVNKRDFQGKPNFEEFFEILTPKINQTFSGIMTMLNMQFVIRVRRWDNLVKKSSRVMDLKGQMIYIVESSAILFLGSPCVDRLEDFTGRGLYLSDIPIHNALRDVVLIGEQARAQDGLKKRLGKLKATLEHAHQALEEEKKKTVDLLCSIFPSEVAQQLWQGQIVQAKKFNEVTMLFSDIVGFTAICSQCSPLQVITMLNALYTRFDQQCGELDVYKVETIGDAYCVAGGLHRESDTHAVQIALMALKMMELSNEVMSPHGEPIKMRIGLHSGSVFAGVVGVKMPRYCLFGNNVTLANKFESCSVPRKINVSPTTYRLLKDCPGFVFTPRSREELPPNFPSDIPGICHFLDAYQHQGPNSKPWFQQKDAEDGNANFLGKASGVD
The experiment in a line: sGC-activating activity in the CHO reporter cell in vitro. It counts as cell-based. The method, then: The cellular action of the compounds according to the invention is determined at a recombinant guanylate cyclase reporter cell line, as described in F. Wunder et al., Anal. Biochem. 339, 104-112 (2005).

The target of assay [2] is T2, soluble guanylate cyclase (sGC) (Rattus norvegicus, UniProt P20595).
T2 construct: made in house; host or cells: baculovirus/Sf9 insect cells
T2 sequence (P20595 1-619): T1 sequence (P20595 1-619)
T2 sequence (P19686 1-690 partner): T1 sequence (P19686 1-690 partner)
The experiment in a line: Activating action at the sGC enzyme in vitro (PPi detection, luciferase). It counts as biochemical. Conditions: for EC50: read-out: EC50 (concentration at 50% of maximum efficacy), activating action at the sGC enzyme. In a few lines:
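Rat sGC (0–10 nM) preincubated 10 min at room temperature with compound in TEA buffer, pH 7.5; reaction started with GTP (1.25 mM solution). PPi formed read continuously by luciferase luminescence; stimulation expressed relative to unstimulated enzyme. Heme-free enzyme tested after 30 min with 25 μM ODQ.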

Assay [3] relates to saphenous artery rings. The experiment in a line: Vasorelaxant effect in vitro (phenylephrine-contracted artery rings). On the set-up: species or system Rabbits. Conditions: concentration reducing phenylephrine-induced contraction by 50%. The method, then:
Rabbits are anesthetized and sacrificed by intravenous injection of thiopental sodium (about 50 mg/kg) and exsanguinated. The saphenous artery is removed and divided into rings 3 mm wide. The rings are mounted singly on in each case a pair of triangular hooks open at the end and made of 0.3 mm-thick special wire (Remanium®). Each ring is placed under an initial tension in 5 ml organ baths with Krebs-Henseleit solution which is at 37° C., is gassed with carbogen and has the following composition: NaCl 119 mM; KCl 4.8 mM; CaCl2×2H2O 1 mM; MgSO4×7H2O 1.4 mM; KH2PO4 1.2 mM; NaHCO3 25 mM; glucose 10 mM; bovine serum albumin 0.001%. The force of contraction is detected with Statham UC2 cells, amplified and digitized via A/D converters (DAS-1802 HC, Keithley Instruments, Munich) and recorded in parallel on chart recorders. Contractions are induced by addition of phenylephrine.
After several (generally 4) control cycles, the substance to be investigated is added in each further run in increasing dosage, and the level of the contraction achieved under the influence of the test substance is compared with the level of the contraction reached in the last preceding run. The concentration necessary to reduce the contraction reached in the preceding control by 50% is calculated from this (IC50). The standard application volume is 5 μl. The proportion of DMSO in the bath solution corresponds to 0.1%.

As to `CC(C(C(=O)Nc1cccc(CC2(C(=O)O)CC2)c1)c1ccc(CN2N=C(c3ccccc3)OCC2=O)cc1)C(F)(F)F` (single isomer, unassigned) [Example 166, 1-{3-[(4,4,4-trifluoro-3-methyl-2-{4-[(5-oxo-2-phenyl-5,6-dihydro-4H-1,3,4-oxadiazin-4-yl)methyl]phenyl}-butanoyl)amino]benzyl}cyclopropanecarboxylic acid], the “MEC (minimum effective concentration), sGC-activating activity in the CHO reporter cell” value (“MEC … in the CHO reporter cell” below) in assay [1] came out at 0.3 nM. In assay [2], the “MEC (minimum effective concentration), activating action at the sGC enzyme” value (from here on “MEC … at the sGC enzyme”) was 0.4 nM and the EC50 is 2.4 nM. Further, the 50% inhibitory concentration (IC50) (usually the concentration that gives 50% inhibition) in assay [3] is 4.9 nM.

As to `CC(C(C(=O)Nc1cccc(CCC(=O)O)c1)c1ccc(CN2N=C(c3ccccc3)OCC2=O)cc1)C(F)(F)F` (single isomer, unassigned) [Example 192, 3-{3-[(4,4,4-Trifluoro-3-methyl-2-{4-[(5-oxo-2-phenyl-5,6-dihydro-4H-1,3,4-oxadiazin-4-yl)methyl]phenyl}butanoyl)amino]phenyl}propanoic acid], the “MEC … in the CHO reporter cell” value in assay [1] turned out to be 3 nM. In addition, in assay [2], the “MEC … at the sGC enzyme” value is 2.5 nM and the EC50 is 30 nM. This compound also returned a concentration for half-maximal inhibition (IC50) in assay [3] (Oryctolagus cuniculus) of 356 nM.

In the case of `O=C(Nc1cc(F)cc(CC2(C(=O)O)CC2)c1)C(c1ccc(CN2N=C(c3ccccc3)OCC2=O)cc1)C1CCCC1` (single isomer, unassigned) [Example 237, 1-{3-[(Cyclopentyl{4-[(5-oxo-2-phenyl-5,6-dihydro-4H-1,3,4-oxadiazin-4-yl)methyl]phenyl}acetyl)amino]-5-fluorobenzyl}cyclopropanecarboxylic acid], the “MEC … in the CHO reporter cell” value in assay [1] amounted to 1 nM. In assay [2], the “MEC … at the sGC enzyme” value is 0.9 nM and the EC50 came out at 21 nM. This compound yielded an IC50 in assay [3] (Oryctolagus cuniculus) of 158 nM.

Take `O=C(Nc1cccc(CC2(C(=O)O)CC2)c1)C(c1ccc(Cn2nc(-c3ccccc3)ccc2=O)cc1)C1CCCC1` (centres unmarked) [Example 156, 1-{3-[(cyclopentyl{4-[(6-oxo-3-phenylpyridazin-1(6H)-yl)methyl]phenyl}acetyl)amino]benzyl}-cyclopropanecarboxylic acid]: the “MEC … in the CHO reporter cell” value in assay [1] was 3 nM. In assay [2], the “MEC … at the sGC enzyme” value was 0.2 nM and the EC50 was determined as 5.4 nM. This compound also showed an IC50 in assay [3] (Oryctolagus cuniculus) of 45 nM.

Turning to `CC(C(C(=O)Nc1cc(CC2(C(=O)O)CC2)ccc1F)c1ccc(CN2N=C(c3ccccc3)OCC2=O)cc1)C(F)(F)F` (centres unmarked) [Example 186, 1-{4-fluoro-3-[(4,4,4-trifluoro-3-methyl-2-{4-[(5-oxo-2-phenyl-5,6-dihydro-4H-1,3,4-oxadiazin-4-yl)methyl]phenyl}butanoyl)amino]benzyl}-cyclopropanecarboxylic acid], the “MEC … in the CHO reporter cell” value in assay [1] came out at 0.2 nM. Also, in assay [2], the “MEC … at the sGC enzyme” value turned out to be 0.1 nM and the EC50 was found to be 1.5 nM. The compound further returned an IC50 in assay [3] (Oryctolagus cuniculus) of 37 nM.

In the case of `O=C(Nc1cccc(CC2(C(=O)O)CC2)c1)[C@H](c1ccc(CN2N=C(c3ccccc3)OCC2=O)cc1)C1CCCC1` [Example 204, (+)-1-(3-{[(2S)-2-Cyclopentyl-2-{4-[(5-oxo-2-phenyl-5,6-dihydro-4H-1,3,4-oxadiazin-4-yl)-methyl]phenyl}acetyl]amino}benzyl)cyclopropane carboxylic acid], the “MEC … in the CHO reporter cell” value in assay [1] was found to be 1 nM. Also, in assay [2], the “MEC … at the sGC enzyme” value is reported as 0.5 nM and the EC50 came to 18 nM. The IC50 in assay [3] (Oryctolagus cuniculus) came to 86 nM.

As for `O=C(Nc1cccc(CC2(C(=O)O)CC2)c1)[C@H](c1ccc(CN2Cc3c(F)cccc3C2=O)cc1)C1CCCC1` [Example 214], the “MEC … in the CHO reporter cell” value in assay [1] was determined as 0.1 nM. In assay [2], the “MEC … at the sGC enzyme” value amounted to 0.4 nM and the EC50 came to 19 nM. The same compound came in with an IC50 in assay [3] (Oryctolagus cuniculus) of 11 nM.

Take `O=C(O)CCc1ccc(F)c(NC(=O)[C@H](c2ccc(CN3N=C(c4ccccc4)OCC3=O)cc2)C2CCCC2)c1` [Example 224]: in assay [1], the “MEC … in the CHO reporter cell” value stood at 1 nM. Also, in assay [2], the “MEC … at the sGC enzyme” value is 1 nM and the EC50 turned out to be 20 nM. Further, in assay [3] (Oryctolagus cuniculus), it took 490 nM to reach half-maximal inhibition (IC50).
